Source: paper PMC12680861, “Comparative analysis of LJ-4378 and tirzepatide in mouse models of obesity and weight regain” (Archives of Pharmacal Research, 2025)

Key:
HFD-fed mice [1] = assay: Immunoblot of lipolytic, thermogenic and mitochondrial proteins in BAT and iWAT; serum FFA; assay type: in vivo, C57BL/6 J male mice; settings: for P-HSL, P-CREB, UCP1 and COXIV levels in BAT: western blot
Method: (§1) To evaluate the anti-obesity effect in vivo, mice fed either NCD or HFD for 10 weeks were subsequently treated for up to 4 weeks. To control for injection route-related variables, all mice received both intraperitoneal (I.P.) and subcutaneous (S.C.) injections. The administration were as follows: LJ-4378 treated mice received LJ-4378, which was synthesized in our laboratory at > 95% purity (1 mg/kg/day, I.P.) (Hou et al. [2010]; Kim et al. [2022]) along with the vehicle for TZP (40 mM Tris–HCl, pH 8, S.C.); TZP treated mice received TZP (Samms et al. [2021]; Kim et al. [2022]) (LY3298176, MedChemExpress, Monmouth Junction, NJ, USA) (10 nmol/kg/day, S.C.) along with the vehicle for LJ-4378 (0.2% DMSO, I.P.); vehicle control mice received both vehicles (0.2% DMSO, I.P. and 40 mM Tris–HCl, pH 8, S.C.)
Serum free fatty acid (FFA) levels were quantification using HR Series NEFA-HR (2) (Color Reagent A (#999–34691), Solvent A (#995–34791), Color Reagent B (#991–34891), Solvent B (#993–35191), and NEFA Standard Solution (#276–76491) (FUJIFILM Wako Pure Chemicals, Osaka, Japan), following the manufacturer’s instruction.
For protein extraction, we utilized PRO-RERP Protein Extraction Solution (17081, iNtRON Biotechnology, Gyeonggi-do, Korea), supplemented with […] […] Protein concentrations were determined using the Pierce BCA protein assay Kit (#23227, Thermo Fisher, Waltham, Massachusetts, USA) by measuring absorbance at 562 nm with a MultiSkan GO spectrophotometer (Thermo Fisher). The quantified proteins were loaded and separated in 12% SDS-PAGE gels and transferred to polyvinylidene difluoride (PVDF) membranes (Bio-Rad, Hercules, CA, USA). […] After secondary antibody incubation, membranes were washed 3 times with TBST and detected with the Fusion Solo chemiluminescence imaging system (Vilber Lourmat, France). EvolutionCapt (version 17.03) software and the ImageJ (National Institutes of Health, Bethesda, MD, USA) program were used for analysis and to quantify the protein level.

HFD-fed mice [2] = assay: Diet-induced obesity model: body weight, body composition, adipose weights, micro-CT; assay type: in vivo, C57BL/6 J male mice; settings: for fat mass reduction relative to HFD controls / reduction in total body weight compared to the HFD control group: LJ-4378 1 mg/kg/day I.P., TZP 10 nmol/kg/day S.C.
Method: Animal experiments were conducted in accordance with the guidelines approved by the Institutional Animal Care and Use Committees (IACUC) of Seoul National University (SNU-230113–5-2, SNU-250410–1, and SNU-250811–5). C57BL/6 J male mice and Sprague–Dawley (SD) male rats were raised in a controlled animal facility with a temperature of 22 ± 1 °C and subjected to a 12-h light/12-h dark cycle. Mice were randomly assigned to experimental groups and fed either a normal chow diet (NCD, protein: 24.52% calories, carbohydrates: 63.07% calories, fat: 12.41% calories, 38,057, Purina Lab, Seongnam, Republic of Korea) or a high-fat diet (HFD, protein: 20% kcal, carbohydrate: 20% kcal, fat: 60% kcal, New Brunswick, D12492, Research Diets, NJ, USA) for the specified durations, according to group assignment. Both diet and water were provided ad libitum. SD rats (230–240 g) were provided standard rat chow and had free access to water. Prior to the experiment, the rats underwent a 12-h fasting period.
as §1
Body composition and micro-CT analysis were performed after the treatment with vehicle, LJ-4378, or TZP for the indicated duration in HFD-fed mice and WR mice.
A nuclear magnetic resonance (NMR) technology system with EchoMRI-700 (Echo Medical Systems, […]) was used to analyze body composition.
To assess the abdominal fat volume, we employed the Quantum GX2 micro-CT imaging system (PerkinElmer, Waltham, MA, USA). Mice were anesthetized with isoflurane and positioned on the micro-CT bed for imaging of the abdominal region, defined from the proximal end of the L1 vertebra to the distal end of the L5 vertebra. Imaging was performed at 90 kV/88 µA with a field of view of 72 mm, a pixel size of 90 µm, and a 2-min acquisition time at standard resolution. Visceral, subcutaneous, and total abdominal fat volumes were quantified using AnalyzeDirect software (ver. 12.0, Overland Park, KS, USA).

Row | Compound | UCP1 expression in BAT, LJ-4378 versus TZP (HFD-fed mice [1]) | P-HSL, P-CREB, UCP1 and COXIV levels in BAT (HFD-fed mice [1]) | fat ratio (% of the total body weight) (HFD-fed mice [2]; 4 weeks of LJ-4378, HFD-fed mice) [%] | fat mass reduction relative to HFD controls (HFD-fed mice [2]; 14 days) [%] | reduction in total body weight compared to the HFD control group (HFD-fed mice [2]; 14 days) [%] | iWAT and gWAT mass (HFD-fed mice [2]; HFD-fed mice, 14 days) | visceral and subcutaneous abdominal fat (micro-CT) (HFD-fed mice [2]; HFD-fed mice, 14 days) | reduction in body weight (HFD-fed mice [2]; four weeks of LJ-4378 administration, HFD-fed mice) [%] | fat ratio (% of the total body weight) (HFD-fed mice [2]; 2 weeks of TZP treatment, HFD-fed mice) [%] | brown adipose tissue (BAT) mass (HFD-fed mice [2]; HFD-fed mice, 14 days)
1 | CCCCC#Cc1nc(N)c2ncn([C@@H]3SC[C@@H](O)[C@H]3O)c2n1 [LJ-4378] | more strongly induced | elevated levels | 20.1 | 30.7 | 9.04 | significantly reduced | reduction | 15.5 | – | –
2 | Tirzepatide [TZP, reference compound] | – | elevated levels | – | 32.4 | 18.63 | significantly reduced | reduction | – | 27.4 | reduced
